Data reported in ChEMBL document CHEMBL3091394, “Novel tacrine-ebselen hybrids with improved cholinesterase inhibitory, hydrogen peroxide and peroxynitrite scavenging activity” (Bioorg Med Chem Lett, 2013).
Calls of active or inactive are those of the source. The rule behind the calls is not given here.

Tests used:
[1] = biological target: Cholinesterase (Equus caballus, UniProt P81908)
Description: Inhibition of equine serum BuChE using butylthiocholine chloride as substrate preincubated for 15 mins by Ellman's method

[2] = biological target: Acetylcholinesterase (Electrophorus electricus, UniProt O42275)
Description: Inhibition of electric eel AChE using acetylthiocholine chloride as substrate preincubated for 15 mins by Ellman's method

[3] = Antioxidant activity assessed as hydrogen peroxide radical scavenging activity at 12.5 uM after 10 hrs by horseradish peroxidase assay; format: functional
[4] = Antioxidant activity assessed as hydrogen peroxide radical scavenging activity at 25 uM after 10 hrs by horseradish peroxidase assay; format: functional
[5] = Antioxidant activity assessed as hydrogen peroxide radical scavenging activity at 20 to 100 uM after 10 hrs by horseradish peroxidase assay; format: functional
[6] = Antioxidant activity assessed as pyrogallol red dye bleaching-induced peroxynitrite scavenging activity up to 62.5 uM relative to ebselen; format: functional
[7] = biological target: Acetylcholinesterase (Homo sapiens, UniProt P22303); test: Inhibition of human AChE using acetylthiocholine chloride as substrate preincubated for 15 mins by Ellman's method
[8] = Cytotoxicity against human HSC assessed as cell viability at 5 to 10 uM after 24 hrs by MTT assay

Sequence of Acetylcholinesterase (Electrophorus electricus, UniProt O42275) (O42275 whole entry): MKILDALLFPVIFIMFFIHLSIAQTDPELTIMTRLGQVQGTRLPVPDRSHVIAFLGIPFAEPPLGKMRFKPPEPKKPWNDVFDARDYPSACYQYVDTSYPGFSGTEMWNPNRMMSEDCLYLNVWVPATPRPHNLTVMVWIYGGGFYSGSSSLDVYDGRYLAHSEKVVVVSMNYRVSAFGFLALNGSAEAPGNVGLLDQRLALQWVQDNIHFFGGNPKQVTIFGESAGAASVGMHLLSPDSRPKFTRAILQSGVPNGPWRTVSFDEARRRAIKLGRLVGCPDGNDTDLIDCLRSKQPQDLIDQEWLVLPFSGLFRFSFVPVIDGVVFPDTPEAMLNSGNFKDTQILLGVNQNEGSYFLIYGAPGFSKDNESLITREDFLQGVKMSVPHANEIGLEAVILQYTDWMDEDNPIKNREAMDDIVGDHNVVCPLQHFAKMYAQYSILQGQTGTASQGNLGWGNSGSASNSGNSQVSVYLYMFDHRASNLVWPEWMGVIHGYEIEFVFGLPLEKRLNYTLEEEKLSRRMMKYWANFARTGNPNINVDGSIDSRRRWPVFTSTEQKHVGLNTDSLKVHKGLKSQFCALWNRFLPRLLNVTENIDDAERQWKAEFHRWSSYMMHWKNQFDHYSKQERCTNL
Sequence of Cholinesterase (P81908 whole entry): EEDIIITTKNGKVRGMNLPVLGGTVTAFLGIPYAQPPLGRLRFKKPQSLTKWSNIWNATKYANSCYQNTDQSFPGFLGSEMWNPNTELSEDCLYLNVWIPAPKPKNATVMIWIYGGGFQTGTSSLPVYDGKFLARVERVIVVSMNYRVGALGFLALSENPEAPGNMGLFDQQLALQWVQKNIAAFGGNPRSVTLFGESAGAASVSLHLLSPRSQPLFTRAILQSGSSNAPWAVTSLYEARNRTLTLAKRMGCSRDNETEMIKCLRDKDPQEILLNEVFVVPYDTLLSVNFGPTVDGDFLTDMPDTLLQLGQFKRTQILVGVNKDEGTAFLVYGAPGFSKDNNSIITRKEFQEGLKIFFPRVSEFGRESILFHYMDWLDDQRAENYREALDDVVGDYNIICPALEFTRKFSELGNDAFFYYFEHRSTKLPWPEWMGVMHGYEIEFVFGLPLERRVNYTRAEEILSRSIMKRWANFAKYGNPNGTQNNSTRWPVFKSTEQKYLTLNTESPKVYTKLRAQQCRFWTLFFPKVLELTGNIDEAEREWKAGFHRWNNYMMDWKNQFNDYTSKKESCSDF
Sequence of Acetylcholinesterase (Homo sapiens, UniProt P22303) (P22303 whole entry): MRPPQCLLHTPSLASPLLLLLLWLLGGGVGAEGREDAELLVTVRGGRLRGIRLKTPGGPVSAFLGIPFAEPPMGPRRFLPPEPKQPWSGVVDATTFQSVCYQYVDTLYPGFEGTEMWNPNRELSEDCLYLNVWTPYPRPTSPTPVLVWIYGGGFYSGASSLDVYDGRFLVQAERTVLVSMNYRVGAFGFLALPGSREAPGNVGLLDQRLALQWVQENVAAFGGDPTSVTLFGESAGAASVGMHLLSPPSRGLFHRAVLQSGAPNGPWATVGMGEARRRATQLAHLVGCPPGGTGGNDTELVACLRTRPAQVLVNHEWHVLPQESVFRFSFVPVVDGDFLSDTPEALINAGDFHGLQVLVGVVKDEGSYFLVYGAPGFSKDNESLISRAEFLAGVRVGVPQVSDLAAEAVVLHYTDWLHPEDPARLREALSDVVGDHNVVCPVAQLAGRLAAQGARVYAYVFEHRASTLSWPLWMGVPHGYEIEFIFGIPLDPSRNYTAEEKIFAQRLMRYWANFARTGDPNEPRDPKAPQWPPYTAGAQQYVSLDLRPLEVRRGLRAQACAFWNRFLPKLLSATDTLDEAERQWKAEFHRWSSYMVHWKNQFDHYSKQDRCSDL

c1ccc2c(NCCCCCCCNc3c4c(nc5ccccc35)CCCC4)c3c(nc2c1)CCCC3
IC50 [1]: 4.08 nM
IC50 [2]: 0.17 nM

O=c1c2ccccc2[se]n1-c1ccccc1
Activity [3]: Active
Activity [4]: 89.7%
Activity [5]: Active

O=c1c2ccccc2[se]n1CCCCCCCCCNc1c2c(nc3ccccc13)CCCC2
IC50 [1]: 25.8 nM
IC50 [2]: 32 nM

COc1cc2[se]n(CCCCCCNc3c4c(nc5ccccc35)CCCC4)c(=O)c2cc1OC
Ratio [6]: 1.26
IC50 [7]: 15.1 nM
Activity [3]: Active
IC50 [1]: 2.8 nM
Activity [4]: 83.7%
Activity [5]: Active
IC50 [2]: 2.55 nM
Activity [8]: Non-toxic

O=c1c2ccccc2[se]n1CCCCNc1c2c(nc3ccccc13)CCCC2
IC50 [1]: 4.94 nM
IC50 [2]: 152 nM

O=c1c2ccccc2[se]n1CCCCCCCNc1c2c(nc3ccccc13)CCCC2
IC50 [1]: 14 nM
IC50 [2]: 26.5 nM

O=c1c2ccccc2[se]n1CCCCCCNc1c2c(nc3ccccc13)CCCC2
Ratio [6]: 1.17
IC50 [7]: 19.5 nM
Activity [3]: Active
IC50 [1]: 4.37 nM
Activity [4]: 70%
Activity [5]: Active
IC50 [2]: 6.32 nM

O=c1c2ccccc2[se]n1CCCNc1c2c(nc3ccccc13)CCCC2
IC50 [1]: 28.5 nM
IC50 [2]: 423 nM

O=c1c2ccccc2[se]n1CCNc1c2c(nc3ccccc13)CCCC2
IC50 [1]: 38.9 nM
IC50 [2]: 657 nM

O=c1c2ccccc2[se]n1CCCCCCCCNc1c2c(nc3ccccc13)CCCC2
IC50 [1]: 16.6 nM
IC50 [2]: 24.1 nM

O=c1c2ccccc2[se]n1CCCCCNc1c2c(nc3ccccc13)CCCC2
IC50 [1]: 4.52 nM
IC50 [2]: 70.8 nM
